From PubChem BioAssay (NCI)
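Interpolation was linear, between the two tested concentrations surrounding the appropriate level; five concentrations were tested over 48 hours in 96-well plates. GI50: concentration for 50% inhibition of growth. TGI is the concentration that stops growth completely.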

Experiments:
Experiment in all cases: NCI-60 cell line screen, 48 h
[1] = system: SNB-75 CNS
[2] = system: SW-620 colon
[3] = system: COLO 205 colon
[4] = system: U251 CNS
[5] = system: K-562 leukemia
[6] = system: OVCAR-8 ovarian
[7] = system: NCI-H522 lung
[8] = system: SF-295 CNS
[9] = system: UO-31 renal
[10] = system: IGROV1 ovarian

Structure (SMILES)	GI50 [1] [µM]	TGI [1] [µM]	GI50 [2] [µM]	TGI [2] [µM]	GI50 [3] [µM]	TGI [3] [µM]	GI50 [4] [µM]	TGI [4] [µM]	GI50 [5] [µM]	TGI [5] [µM]	GI50 [6] [µM]	TGI [6] [µM]	GI50 [7] [µM]	TGI [7] [µM]	GI50 [8] [µM]	TGI [8] [µM]	GI50 [9] [µM]	TGI [9] [µM]	GI50 [10] [µM]	TGI [10] [µM]
O=C(Nc1ccc(OS(=O)(=O)c2ccc(F)cc2)cc1)C12CC3CC(CC(C3)C1)C2	4.51	26.8	0.54	> 100	0.434	> 100	18	> 100	0.319	> 100	18.1	> 100	1.72	> 100	1.57	29.1	6.21	> 100	16.1	> 62.5
O=c1cc(-c2ccc(Cl)cc2)[nH]c2ccccc12	37.4	> 100	27.7	> 100	35.1	> 100	41.5	> 100	7.03	> 100	> 100	> 100	59.6	> 100	41.2	> 100	> 100	> 100	61.5	> 100
Nc1cn(C2OC(CC(c3ccccc3)(c3ccccc3)c3ccccc3)C(O)C2O)c(=O)[nH]c1=O (stereo not given)	–	> 100	–	28	–	30.3	–	32.1	–	54.4	–	89.6	–	38.3	–	99.7	–	> 100	–	70.7
Cc1ccccc1/C=C/c1csnn1	–	> 100	–	> 79.9	–	> 100	–	> 100	–	> 100	–	> 100	–	> 100	–	> 100	–	> 100	–	> 100
O/N=C1/CCCC/C1=C/C=C/c1ccccc1	–	75.3	–	77.1	–	35.4	–	32.3	–	96.1	–	> 100	–	34.1	–	69.8	–	49.4	–	36.8
Cc1cc(S(=O)(=O)/N=C(\N)Nc2cccc(O)c2)c(SCc2ccccc2)cc1Cl	10.8	26.5	29.3	> 100	28.8	> 100	18.9	48.6	8.28	> 100	24.3	87.1	13.9	41.8	16.7	51.2	10.8	27.6	17.5	64.8
c1ccc2c(c1)[nH]c1cnc3c4ncccc4[nH]c3c12	–	> 100	–	> 100	–	> 100	–	> 100	–	> 100	–	> 100	–	> 100	–	> 100	–	> 100	–	> 100
CN(C)c1ccc(C(=S)c2ccc(N(C)C)cc2)cc1	5.28	40.2	3.98	> 100	6.83	59	6.34	> 100	3.61	> 100	11.6	> 100	2.56	9.31	4.73	> 100	8.92	> 100	6.29	> 100
